System: Candida paratropicalis
Assay: MBEC assay (biofilm inhibition)
Type: cell-based
Conditions: biofilm grown 24 hours at 37±2°C on pegs, logR = log reduction; for log reduction at 100 µM: test compound 100 µm (so in the source); for log reduction at 10 µM: test compound 10 µM
Description: TEST METHOD: MBEC™ Assay The compound to be tested was dissolved in DMSO to obtain a concentration that was 100 times that of the final concentration required (1mM for the 10µM assay and 10mM for the 100µM assay). 1.5 µL of the above solution was placed into each well of a 96 well plate (final volume in each well = 150 µL, final DMSO concentration of 1% (v/v)). To grow the organism and form a biofilm, a cryogenic stock of Candida paratropicalis (at - 70°C) was used. A first sub-culture was streaked out onto TSA (tryptic soy agar), upon which the plate was incubated at 37±2°C for 24 hours and stored wrapped in parafilm at 4 °C afterwards. From this first sub-culture, a second sub-culture was streaked out onto TSA. The plate was incubated at 37±2°C for 24 hours. The second sub-culture was used within 24 hours starting from the time it was first removed from incubation. Using the second sub-culture an inoculum in 3 mL sterile water that matches a 0.5 McFarland Standard (1.5 x 10^8 cells per mL) was created in a glass test tube using a sterile cotton swab. […] of this solution was diluted in 22mL TSB (tryptic soy broth) medium to a cell density of approximately 6.0 x 10^5 cells per mL. The diluted organism was inverted 3-5 times to achieve uniform mixing of the organism. One sample (100µl) of the diluted organism was used for an inoculum check by serially diluting and spot plating on TSA. To prepare a challenge plate, 20 µl of the diluted organism was added to each well of a 96 well plate except the sterility control wells. The test compounds were added to the wells to make up final concentrations of 10 µM and 100 µM (1.5 µL /well) in the designated location in the test plate. 128.5 µL of TSB was placed in each of the wells. 130 µL of media was added to the growth control wells. 128.5 µL of media+ 1.5 µL of DMSO were added to a second set of growth control wells. 150 µL of media was added to the sterility controls. Each sample was run in triplicate. The plate was covered by a lid with a peg per well and wrapped in parafilm and placed on a shaker in a humidified incubator (GeneVac) at 37±2°C for 24 hours set at 110 rpm. Rinse plate(s) of 0.9% saline (200 µL per well) were prepared in a sterile 96 well microtitre plate. Lid-associated pegs were rinsed in 0.9% saline for approximately 1-2 minutes. The peg lid was transferred to the recovery media (1.0% Tween 80 in CAMHB) then sonicated for 30 minutes to dislodge surviving biofilm. Following sonication, 100 µl from each well of the 96 well plate was placed into the first 12 wells of the first row of a 96 well microtiter plate. 180 µl of 0.9% sterile saline was placed in the remaining rows. A serial dilution (10^0-10^-7) was prepared by moving 20 µl down each of the 8 rows. 20µl from each well was removed and spot plated on a prepared TSA. In the remaining recovery plate, 100 µl of fresh growth media (1.0% Tween 80 in CAMHB) was placed in each well to replace the amount removed. The recovery plate was covered with a regular lid and incubated at 37±2°C for 24 hours and read visually to confirm antimicrobial activity of the test compounds. The following compounds have been tested regarding their efficiency (logR = log reduction) against Candida paratropicalis: […]

`CCCCCCCCCC(=O)CC(=O)N(C)c1ccc(F)cc1` [Example 1] was tested. Which log reduction at 100 µM did it give?
The log reduction at 100 µM was 0.62.

Which log reduction at 10 µM does the source give for `CCCCCCC(=O)CC(=O)Nc1ccno1` [Example 2] here?
The log reduction at 10 µM was 1.12.

What about the log reduction at 100 µM of the same compound?
Its log reduction at 100 µM is 0.65.

`CCCCCCCCCC(=O)CC(=O)Nc1ccno1` [Example 3] was tested. Which log reduction at 10 µM did it give?
The log reduction at 10 µM was 1.26.

What about the log reduction at 100 µM of the same compound?
Its log reduction at 100 µM is 1.1.

Which log reduction at 100 µM does the source give for `CCCCCCCCCC(=O)CC(=O)Nc1nc(C)co1` [Example 4] here?
Its log reduction at 100 µM is 1.71.

For `CCCCCCCCCC(=O)CC(=O)N1CCN(C)CC1` [Example 5], which log reduction at 100 µM is on record?
The log reduction at 100 µM was 2.83.

With `CCCCCCCCCC(=O)CC(=O)N1CCC(N(C)C)C1` (centres unmarked) [Example 6] as the compound, how does the log reduction at 100 µM read?
Its log reduction at 100 µM is 3.87.

Reference: patent EP2070527A1, “Inhibitors of fungal biofilm-formation” (QuoNova Europe GmbH, priority 2007, dated 2009)
